These results are taken from ChEMBL document CHEMBL1155084 (J Med Chem, 2008).

Bounds are passed on as bounds.

The subject of data set [1] is Blood. Description: Inhibition of TNFalpha release in human whole blood. The data set is classed as functional, tissue-based.
The target in the next data set is T1, CYP1A2 (Homo sapiens, UniProt P05177).
T1 sequence (P05177 whole entry): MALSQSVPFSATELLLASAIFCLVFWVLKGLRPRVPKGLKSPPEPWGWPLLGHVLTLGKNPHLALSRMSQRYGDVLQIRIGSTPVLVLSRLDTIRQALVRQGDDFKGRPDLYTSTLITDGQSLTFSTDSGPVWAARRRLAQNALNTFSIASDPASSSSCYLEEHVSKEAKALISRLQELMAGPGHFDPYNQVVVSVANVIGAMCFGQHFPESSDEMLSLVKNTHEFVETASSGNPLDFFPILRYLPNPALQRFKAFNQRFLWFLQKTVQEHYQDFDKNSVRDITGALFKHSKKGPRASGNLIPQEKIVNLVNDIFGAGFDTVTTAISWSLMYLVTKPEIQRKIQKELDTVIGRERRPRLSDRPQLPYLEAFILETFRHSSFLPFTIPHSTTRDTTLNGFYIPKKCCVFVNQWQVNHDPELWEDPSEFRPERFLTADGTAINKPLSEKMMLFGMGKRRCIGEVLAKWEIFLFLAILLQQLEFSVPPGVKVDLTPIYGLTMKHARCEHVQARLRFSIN
Kind of data set: Inhibition of CYP1A2 at 10 uM. The data set is classed as ADME.

For the next data set, the target named is CYP2C9 (Homo sapiens, UniProt P11712). Kind of data set: Inhibition of CYP2C9 at 10 uM. The data set is classed as ADME.
Chain of CYP2C9 (P11712 whole entry): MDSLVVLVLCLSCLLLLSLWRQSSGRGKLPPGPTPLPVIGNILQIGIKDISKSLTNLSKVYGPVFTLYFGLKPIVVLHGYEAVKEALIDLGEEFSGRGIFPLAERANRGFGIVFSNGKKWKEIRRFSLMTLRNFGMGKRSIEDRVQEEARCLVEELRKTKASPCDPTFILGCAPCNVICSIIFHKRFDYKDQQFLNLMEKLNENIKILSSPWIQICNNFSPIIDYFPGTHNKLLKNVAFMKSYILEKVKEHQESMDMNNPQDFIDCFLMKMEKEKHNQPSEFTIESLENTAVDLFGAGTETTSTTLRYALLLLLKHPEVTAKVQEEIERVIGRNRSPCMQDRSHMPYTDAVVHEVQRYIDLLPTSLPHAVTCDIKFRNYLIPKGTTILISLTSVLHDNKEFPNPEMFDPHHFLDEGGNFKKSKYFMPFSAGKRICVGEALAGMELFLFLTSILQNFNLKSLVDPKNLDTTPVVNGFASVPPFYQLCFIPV
The target in another data set is CYP2C19 (Homo sapiens, UniProt P33261). Kind of data set: Inhibition of CYP2C19 at 10 uM. The data set is classed as ADME.
Chain of CYP2C19 (P33261 whole entry): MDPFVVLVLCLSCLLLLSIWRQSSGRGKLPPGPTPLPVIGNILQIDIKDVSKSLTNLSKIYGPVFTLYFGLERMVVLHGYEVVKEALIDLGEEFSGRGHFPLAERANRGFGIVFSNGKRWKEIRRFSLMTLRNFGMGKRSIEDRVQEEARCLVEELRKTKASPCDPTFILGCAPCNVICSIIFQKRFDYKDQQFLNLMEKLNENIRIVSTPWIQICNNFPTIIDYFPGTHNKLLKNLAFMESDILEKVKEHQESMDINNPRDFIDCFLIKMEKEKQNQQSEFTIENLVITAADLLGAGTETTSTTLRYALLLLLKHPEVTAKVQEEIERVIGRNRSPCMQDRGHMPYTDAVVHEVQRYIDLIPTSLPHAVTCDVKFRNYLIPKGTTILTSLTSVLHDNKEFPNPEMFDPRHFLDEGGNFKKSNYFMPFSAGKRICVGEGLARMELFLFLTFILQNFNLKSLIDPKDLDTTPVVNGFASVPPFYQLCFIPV
Another data set deals with CYP2D6 (Homo sapiens, UniProt P10635). Kind of data set: Inhibition of CYP2D6 at 10 uM. The data set is classed as ADME.
Chain of CYP2D6 (P10635 whole entry): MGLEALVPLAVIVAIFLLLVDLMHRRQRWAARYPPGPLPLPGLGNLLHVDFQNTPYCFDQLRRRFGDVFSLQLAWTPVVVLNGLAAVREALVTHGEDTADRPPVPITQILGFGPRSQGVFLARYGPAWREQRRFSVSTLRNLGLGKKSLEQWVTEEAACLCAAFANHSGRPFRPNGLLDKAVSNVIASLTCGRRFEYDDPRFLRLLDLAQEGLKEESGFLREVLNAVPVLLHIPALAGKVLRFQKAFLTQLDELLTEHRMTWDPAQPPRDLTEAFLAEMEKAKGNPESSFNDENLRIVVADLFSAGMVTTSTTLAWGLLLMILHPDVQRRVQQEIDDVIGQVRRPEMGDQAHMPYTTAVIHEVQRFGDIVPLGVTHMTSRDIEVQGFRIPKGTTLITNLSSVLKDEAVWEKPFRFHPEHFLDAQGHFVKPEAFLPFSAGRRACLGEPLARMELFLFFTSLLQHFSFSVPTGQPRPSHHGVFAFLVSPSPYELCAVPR
The target in the next data set is CYP3A4 (Homo sapiens, UniProt P08684). Description: Inhibition of CYP3A4 at 10 uM. The data set is classed as ADME.
Chain of CYP3A4 (P08684 whole entry): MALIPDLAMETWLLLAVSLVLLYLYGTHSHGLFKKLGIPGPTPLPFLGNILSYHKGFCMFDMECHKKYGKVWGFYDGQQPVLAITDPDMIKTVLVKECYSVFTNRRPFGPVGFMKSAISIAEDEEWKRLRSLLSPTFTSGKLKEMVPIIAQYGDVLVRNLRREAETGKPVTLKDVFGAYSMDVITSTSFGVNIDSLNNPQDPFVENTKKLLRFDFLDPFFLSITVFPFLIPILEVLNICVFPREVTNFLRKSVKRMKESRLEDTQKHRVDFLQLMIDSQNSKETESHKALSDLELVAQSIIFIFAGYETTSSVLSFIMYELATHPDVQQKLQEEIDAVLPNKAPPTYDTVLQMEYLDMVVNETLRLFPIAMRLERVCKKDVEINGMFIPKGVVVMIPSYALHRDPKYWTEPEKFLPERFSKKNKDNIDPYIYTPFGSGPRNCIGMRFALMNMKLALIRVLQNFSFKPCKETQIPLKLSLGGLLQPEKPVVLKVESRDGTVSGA
Data set [2] concerns the target Mitogen-activated protein kinase 14 (Homo sapiens, UniProt Q16539). Description: Inhibition of p38alpha.
Data set [3] has as its system Blood. Kind of data set: Inhibition of IL1-beta release in human whole blood. The class given is functional, tissue-based.

Chain of Mitogen-activated protein kinase 14 (Q16539 whole entry): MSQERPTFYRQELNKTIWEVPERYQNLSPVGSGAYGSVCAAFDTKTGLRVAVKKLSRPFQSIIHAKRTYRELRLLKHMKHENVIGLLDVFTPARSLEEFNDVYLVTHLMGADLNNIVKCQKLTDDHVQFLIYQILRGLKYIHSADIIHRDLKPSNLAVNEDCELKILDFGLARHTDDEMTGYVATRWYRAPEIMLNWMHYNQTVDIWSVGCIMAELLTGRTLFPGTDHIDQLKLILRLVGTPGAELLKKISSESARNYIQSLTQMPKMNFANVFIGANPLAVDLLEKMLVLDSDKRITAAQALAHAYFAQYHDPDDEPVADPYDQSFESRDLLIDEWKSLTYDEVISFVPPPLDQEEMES

As to `CSc1nc(-c2ccc(F)cc2)c(-c2ccnc(N[C@H](C)c3ccccc3)c2)n1C`, the results for the IC50 (with Blood [1]; in data set [2]) were above 20000 nM and 960 nM, respectively. The inhibition at 10 µM on CYP1A2 came to 52%; against CYP2C9, 78%; on CYP2C19 it was 87%; at CYP2D6 it was 53%; on CYP3A4 it was 85%.
In the case of `CSc1nc(-c2ccc(F)cc2)c(-c2ccnc(NCC(C)c3ccccc3)c2)[nH]1` (configuration not stated), the IC50 in the data set on Blood [1] came out at 3930 nM; with Blood [3] it was 10100 nM; in data set [2], 17 nM.
For `CSc1nc(-c2ccc(F)cc2)c(-c2ccnc(NC3CCCCC3C)c2)[nH]1` (mixture of isomers) the same measures were 458 nM, 136 nM and 13 nM.
`CSc1nc(-c2ccc(F)cc2)c(-c2ccnc(NCc3cccnc3)c2)[nH]1`: the IC50 in the data set on Blood [1] came out at 9850 nM; in data set [2], 98 nM. In addition, the inhibition at 10 µM came out at 67% on CYP1A2; 77% on CYP2C9; 81% on CYP2C19; 54% at CYP2D6; 93% against CYP3A4.
With `C[S+]([O-])c1ccc(-c2nc(-c3ccncc3)c(-c3ccc(F)cc3)[nH]2)cc1` (configuration not stated) [SB-203580], the inhibition at 10 µM was found to be 38% against CYP1A2 and 87% against CYP2C9.
In the case of `CCSc1cc(-c2nc(SC)[nH]c2-c2ccc(F)cc2)ccn1`, the concentration for half-maximal inhibition (IC50) in the data set with Blood [1] was 24100 nM; in the data set on Blood [3], 61300 nM; in data set [2], 87 nM.
For `CSc1nc(-c2ccc(F)cc2)c(-c2ccnc3ccccc23)[nH]1` the same measures were 16800 nM, 35000 nM and 411 nM.
Turning to `CCC(Nc1cc(-c2nc(SC)[nH]c2-c2ccc(F)cc2)ccn1)c1ccccc1` (configuration not stated), the inhibition at 10 µM was found to be 55% on CYP1A2; 80% at CYP2C9; 88% against CYP2C19; 73% against CYP2D6; 81% against CYP3A4. In data set [2], this compound yielded an IC50 of 68 nM.
For the compound `CSc1nc(-c2ccc(F)cc2)c(-c2ccnc(NCc3ccco3)c2)[nH]1`, the IC50 was 5520 nM in the data set on Blood [1] and 60 nM in data set [2]. In addition, the inhibition at 10 µM against CYP1A2 stood at 76%; against CYP2C9, 71%; against CYP2C19, 63%; on CYP2D6 it was 66%; against CYP3A4, 81%.
On to `CCC(C)CNc1cc(-c2[nH]c(SC)nc2-c2ccc(F)cc2)ccn1` (configuration not stated), for which the results for the IC50 (in the data set on Blood [1]; with Blood [3]; in data set [2]) were 622 nM, 2760 nM and 23 nM, respectively.
On to `CSc1nc(-c2ccc(F)cc2)c(-c2ccnc(NCC3CCCCC3)c2)[nH]1`, for which the IC50 worked out at 5940 nM in the data set on Blood [1] and 80 nM in data set [2]. For the same compound, the inhibition at 10 µM against CYP1A2 worked out at 62%; on CYP2C9, 73%; against CYP2C19, 80%; on CYP2D6, 63%; against CYP3A4, 80%.
As to `CSc1nc(-c2cccc(C(F)(F)F)c2)c(-c2ccnc(NC(C)CCc3ccccc3)c2)[nH]1` (configuration not stated), the IC50 amounted to 4640 nM in the data set on Blood [1], 1290 nM in the data set on Blood [3] and 49 nM in data set [2].
Take `CSc1nc(-c2ccc(F)cc2)c(-c2ccnc(NCc3cccs3)c2)[nH]1`: the IC50 with Blood [1] came out at 4880 nM; in data set [2] it was 46 nM. The inhibition at 10 µM was found to be 83% against CYP1A2; 82% at CYP2C9; 78% at CYP2C19; 51% at CYP2D6; 83% at CYP3A4.
Turning to `CSc1nc(-c2ccc(F)cc2)c(-c2ccnc(NCc3ccccn3)c2)[nH]1`, the values for the IC50 (in the data set with Blood [1]; in data set [2]) were 4320 nM and 70 nM, respectively. The inhibition at 10 µM at CYP1A2 came to 53%; against CYP2C9, 52%; on CYP2C19 it was 47%; on CYP2D6 it was 9%; at CYP3A4, 53%.
For `CSc1nc(-c2cccc(C(F)(F)F)c2)c(-c2ccnc(NC3CCCc4ccccc43)c2)[nH]1` (configuration not stated), the values for the IC50 (in the data set on Blood [1]; in the data set on Blood [3]; in data set [2]) were 21200 nM, 10300 nM and 248 nM, respectively.
As to `COCCn1c(SC)nc(-c2ccc(F)cc2)c1-c1ccnc(N[C@H](C)c2ccccc2)c1`, the IC50 with Blood [1] turned out to be 9860 nM; in data set [2] it was 610 nM. Besides, the inhibition at 10 µM against CYP1A2 was determined as 25%; at CYP2C9, 71%; against CYP2C19, 83%; against CYP2D6, 64%; at CYP3A4 it was 87%.
Consider `CSc1nc(-c2ccc(F)cc2)c(-c2ccncc2)n1C`, for which the figures for the IC50 with Blood [1] and in the data set on Blood [3] were 5100 nM and 80 nM, respectively.
Consider `COCCn1c(SC)nc(-c2ccc(F)cc2)c1-c1ccnc(N[C@@H](C)c2ccccc2)c1`, for which the figures for the IC50 (in the data set with Blood [1]; in data set [2]) were 580 nM and 40 nM, respectively. Further, the inhibition at 10 µM at CYP1A2 amounted to 5%; against CYP2C9, 85%; at CYP2C19 it was 95%; at CYP2D6, 25%; against CYP3A4 it was 81%.
With `CSc1nc(-c2ccc(F)cc2)c(-c2ccnc(NCCc3cc(C)ccc3C)c2)[nH]1`, the IC50 in the data set on Blood [1] turned out to be 51500 nM; in the data set with Blood [3] it was 59300 nM; in data set [2], 82 nM.
`CSc1nc(-c2ccc(F)cc2)c(-c2ccnc(N[C@@H](C)c3ccccc3)c2)n1C`: the IC50 in the data set on Blood [1] was found to be 1710 nM; in data set [2], 70 nM. For the same compound, the inhibition at 10 µM on CYP1A2 was 60%; against CYP2C9, 66%; against CYP2C19, 76%; against CYP2D6, 27%; against CYP3A4 it was 87%.
In the case of `CSc1nc(-c2ccnc(NC3CCCc4ccccc43)c2)c(-c2ccc(F)cc2)[nH]1` (configuration not stated), the IC50 in the data set with Blood [1] is 2810 nM; in the data set with Blood [3] it was 16200 nM; in data set [2], 47 nM.
Turning to `CSc1nc(-c2ccc(F)cc2)c(-c2ccnc(NC(C)C(C)(C)C)c2)[nH]1` (configuration not stated), the IC50 was 435 nM in the data set with Blood [1] and 230 nM in data set [2].
Consider `CSc1nc(-c2cccc(C(F)(F)F)c2)c(-c2ccnc(NC(C)C(C)C)c2)[nH]1` (configuration not stated), for which the IC50 in the data set with Blood [1] came to 2930 nM; with Blood [3] it was 1360 nM; in data set [2] it was 34 nM.
In the case of `COCCn1c(SC)nc(-c2ccc(F)cc2)c1-c1ccnc(NC(C)CO)c1` (configuration not stated), the 50% inhibitory concentration (IC50) with Blood [1] was determined as 17400 nM; in data set [2], 292 nM.
The like results for `CSc1nc(-c2ccc(F)cc2)c(-c2ccnc(N[C@H]3CC[C@@H](C)CC3)c2)[nH]1` were, in that order, 3680 nM and 31 nM.
The like results for `CSc1nc(-c2cccc(C(F)(F)F)c2)c(-c2ccnc(NCCCO)c2)[nH]1` were, in that order, 5190 nM and 61 nM.
For the compound `COCCn1c(SC)nc(-c2ccc(F)cc2)c1-c1ccnc(N[C@H]2CC[C@H](O)CC2)c1`, the IC50 with Blood [1] came to 1650 nM; in data set [2], 3 nM. Further, the inhibition at 10 µM against CYP1A2 was 23%; at CYP2C9 it was 40%; at CYP2C19, 58%; against CYP2D6, 24%; on CYP3A4, 80%.
On to `CSc1nc(-c2cccc(C(F)(F)F)c2)c(-c2ccnc(N[C@H](C)C3CCCCC3)c2)[nH]1`, for which the IC50 in the data set with Blood [1] stood at 9890 nM; in data set [2] it was 36 nM.
For `CSc1nc(-c2ccc(F)cc2)c(-c2ccnc(NCc3cc4ccccc4s3)c2)[nH]1` the same measures were 55500 nM and 314 nM.

The term IC50 denotes the point on the concentration scale where inhibition reaches its midpoint. In general, inhibition refers to the relative decrease from the control value, in per cent. A lower inhibition goes with a weak effect.
